Test results from PubChem BioAssay (NCI).
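The concentration for 50% growth inhibition is given as GI50. TGI denotes the concentration required for complete inhibition of growth.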

How the values were obtained:
Assay in all cases: DTP human tumour cell line panel, 384-well format
NCI-H322M lung = system: NCI-H322M lung
NCI-H460 NSCLC = system: NCI-H460 NSCLC
HCC-2998 colon = system: HCC-2998 colon
SF-268 CNS = system: SF-268 CNS
786-0 renal = system: 786-0 renal
UACC-62 melanoma = system: UACC-62 melanoma
HS 578T breast = system: HS 578T breast
HOP-92 NSCLC = system: HOP-92 NSCLC
NCI-H226 lung = system: NCI-H226 lung
EKVX NSCLC = system: EKVX NSCLC
SR leukemia = system: SR leukemia
HCT-15 colon = system: HCT-15 colon
SK-MEL-2 melanoma = system: SK-MEL-2 melanoma
ACHN renal = system: ACHN renal
HOP-62 NSCLC = system: HOP-62 NSCLC
BT-549 breast = system: BT-549 breast
RPMI-8226 leukemia = system: RPMI-8226 leukemia
OVCAR-3 ovarian = system: OVCAR-3 ovarian
UO-31 renal = system: UO-31 renal
SN12C renal = system: SN12C renal
M14 melanoma = system: M14 melanoma
MOLT-4 leukemia = system: MOLT-4 leukemia
SNB-19 CNS = system: SNB-19 CNS
SF-539 CNS = system: SF-539 CNS
PC-3 prostate = system: PC-3 prostate
IGROV1 ovarian = system: IGROV1 ovarian
CAKI-1 renal = system: CAKI-1 renal
K-562 leukemia = system: K-562 leukemia
MDA-MB-468 breast = system: MDA-MB-468 breast
NCI-H522 lung = system: NCI-H522 lung
T-47D breast = system: T-47D breast
SK-MEL-5 melanoma = system: SK-MEL-5 melanoma
COLO 205 colon = system: COLO 205 colon
OVCAR-8 ovarian = system: OVCAR-8 ovarian
U251 glioblastoma = system: U251 glioblastoma
MDA-MB-231 breast = system: MDA-MB-231 breast
SK-OV-3 ovarian = system: SK-OV-3 ovarian
NCI-H23 lung = system: NCI-H23 lung
TK-10 renal = system: TK-10 renal
HL-60(TB) leukemia = system: HL-60(TB) leukemia
CCRF-CEM leukemia = system: CCRF-CEM leukemia
KM12 colon = system: KM12 colon
OVCAR-5 ovarian = system: OVCAR-5 ovarian
A498 renal = system: A498 renal
A549 NSCLC = system: A549 NSCLC
SNB-75 CNS = system: SNB-75 CNS
LOX IMVI melanoma = system: LOX IMVI melanoma
OVCAR-4 ovarian = system: OVCAR-4 ovarian
NCI/ADR-RES ovarian = system: NCI/ADR-RES ovarian
SW-620 colon = system: SW-620 colon
RXF 393 renal = system: RXF 393 renal
MDA-MB-435 melanoma = system: MDA-MB-435 melanoma
MCF7 breast = system: MCF7 breast
HCT-116 colon = system: HCT-116 colon
SK-MEL-28 melanoma = system: SK-MEL-28 melanoma
DU-145 prostate = system: DU-145 prostate
MALME-3M melanoma = system: MALME-3M melanoma
UACC-257 melanoma = system: UACC-257 melanoma
HT29 colon = system: HT29 colon
SF-295 CNS = system: SF-295 CNS

Cc1cc2cc(Oc3ccnc(Nc4cccc(CS(=O)(=O)NCCN(C)C)c4)n3)ccc2[nH]1
GI50 (NCI-H322M lung): 10.7 µM | TGI (NCI-H322M lung): 23.2 µM | GI50 (NCI-H460 NSCLC): 2.62 µM | TGI (NCI-H460 NSCLC): 6.54 µM | GI50 (HCC-2998 colon): 2.02 µM | TGI (HCC-2998 colon): 3.98 µM | GI50 (SF-268 CNS): 3.93 µM | TGI (SF-268 CNS): 14.1 µM | GI50 ([…]-0 renal): 3.36 µM | TGI (786-0 renal): 11.9 µM | GI50 (UACC-62 melanoma): 2.78 µM | TGI (UACC-62 melanoma): 7.45 µM | GI50 (HS 578T breast): 1.69 µM | TGI (HS 578T breast): 5.72 µM | GI50 (HOP-92 NSCLC): 2.51 µM | TGI (HOP-92 NSCLC): 7.51 µM | GI50 (NCI-H226 lung): 1.95 µM | TGI (NCI-H226 lung): 12.5 µM | GI50 (EKVX NSCLC): 5.04 µM | TGI (EKVX NSCLC): 16.7 µM | GI50 (SR leukemia): 1.38 µM | TGI (SR leukemia): 2.69 µM | GI50 (HCT-15 colon): 5.47 µM | TGI (HCT-15 colon): 16.7 µM | GI50 (SK-MEL-2 melanoma): 2.64 µM | TGI (SK-MEL-2 melanoma): 6.28 µM | GI50 (ACHN renal): 6.45 µM | TGI (ACHN renal): 19 µM | GI50 (HOP-62 NSCLC): 7.38 µM | TGI (HOP-62 NSCLC): 20.2 µM | GI50 (BT-549 breast): 2.19 µM | TGI (BT-549 breast): 7.26 µM | GI50 (RPMI-8226 leukemia): 3.29 µM | TGI (RPMI-8226 leukemia): 11.4 µM | GI50 (OVCAR-3 ovarian): 6.2 µM | TGI (OVCAR-3 ovarian): 18 µM | GI50 (UO-31 renal): 10.6 µM | TGI (UO-31 renal): 22.5 µM | GI50 (SN12C renal): 3.66 µM | TGI (SN12C renal): 13.2 µM | GI50 (M14 melanoma): 3.38 µM | TGI (M14 melanoma): 7.81 µM | GI50 (MOLT-4 leukemia): 1.8 µM | TGI (MOLT-4 leukemia): 3.24 µM | GI50 (SNB-19 CNS): 8.83 µM | TGI (SNB-19 CNS): 21.2 µM | GI50 (SF-539 CNS): 2.04 µM | TGI (SF-539 CNS): 6.29 µM | GI50 (PC-3 prostate): 4.19 µM | TGI (PC-3 prostate): 14.9 µM | GI50 (IGROV1 ovarian): 3.05 µM | TGI (IGROV1 ovarian): 9.84 µM | GI50 (CAKI-1 renal): 3.61 µM | TGI (CAKI-1 renal): 13.9 µM | GI50 (K-562 leukemia): 1.27 µM | TGI (K-562 leukemia): 2.59 µM | GI50 (MDA-MB-468 breast): 3.19 µM | TGI (MDA-MB-468 breast): 7.85 µM | GI50 (NCI-H522 lung): 2.47 µM | TGI (NCI-H522 lung): 7.78 µM | GI50 (T-47D breast): 7.08 µM | TGI (T-47D breast): 19.2 µM | GI50 (SK-MEL-5 melanoma): 1.74 µM | TGI (SK-MEL-5 melanoma): 3.16 µM | GI50 (COLO 205 colon): 4.4 µM | TGI (COLO 205 colon): 10.2 µM | GI50 (OVCAR-8 ovarian): 9.99 µM | TGI (OVCAR-8 ovarian): 22.1 µM | GI50 (U251 glioblastoma): 3.56 µM | TGI (U251 glioblastoma): 14.5 µM | GI50 (MDA-MB-231 breast): 6.73 µM | TGI (MDA-MB-231 breast): 19.1 µM | GI50 (SK-OV-3 ovarian): 8.13 µM | TGI (SK-OV-3 ovarian): 20.8 µM | GI50 (NCI-H23 lung): 2.51 µM | TGI (NCI-H23 lung): 8.7 µM | GI50 (TK-10 renal): 8.76 µM | TGI (TK-10 renal): 21.2 µM | GI50 (HL-60(TB) leukemia): 2.45 µM | TGI (HL-60(TB) leukemia): 5.63 µM | GI50 (CCRF-CEM leukemia): 1.96 µM | TGI (CCRF-CEM leukemia): 3.65 µM | GI50 (KM12 colon): 0.736 µM | TGI (KM12 colon): 12.2 µM | GI50 (OVCAR-5 ovarian): 3.81 µM | TGI (OVCAR-5 ovarian): 13.1 µM | GI50 (A498 renal): 3.08 µM | TGI (A498 renal): 11.1 µM | GI50 (A549 NSCLC): 7.13 µM | TGI (A549 NSCLC): 19.4 µM | GI50 (SNB-75 CNS): 1.55 µM | TGI (SNB-75 CNS): 3.81 µM | GI50 (LOX IMVI melanoma): 1.93 µM | TGI (LOX IMVI melanoma): 4.2 µM | GI50 (OVCAR-4 ovarian): 12 µM | TGI (OVCAR-4 ovarian): 24.4 µM | GI50 (NCI/ADR-RES ovarian): 15.3 µM | TGI (NCI/ADR-RES ovarian): 28.8 µM | GI50 (SW-620 colon): 11.1 µM | TGI (SW-620 colon): 23.3 µM | GI50 (RXF 393 renal): 1.83 µM | TGI (RXF 393 renal): 4.32 µM | GI50 (MDA-MB-435 melanoma): 7.5 µM | TGI (MDA-MB-435 melanoma): 19.6 µM | GI50 (MCF7 breast): 3.48 µM | TGI (MCF7 breast): 12.7 µM | GI50 (HCT-116 colon): 3.29 µM | TGI (HCT-116 colon): 11.8 µM | GI50 (SK-MEL-28 melanoma): 4.58 µM | TGI (SK-MEL-28 melanoma): 12.4 µM | GI50 (DU-145 prostate): 8.4 µM | TGI (DU-145 prostate): 20.8 µM | GI50 (MALME-3M melanoma): 1.84 µM | TGI (MALME-3M melanoma): 3.34 µM | GI50 (UACC-257 melanoma): 1.84 µM | TGI (UACC-257 melanoma): 3.26 µM | GI50 (HT29 colon): 2.4 µM | TGI (HT29 colon): 6.03 µM | GI50 (SF-295 CNS): 8.49 µM | TGI (SF-295 CNS): 21.1 µM
